Experimental data as given in patent publication US20230250095A1, “BENZIMIDAZOLE DERIVATIVES, PREPARATION METHOD THEREFOR AND MEDICAL USE THEREOF” (TUOJIE BIOTECH(SHANGHAI) CO., LTD., priority 2020, published 2023).

Tests used:
[1] = Caco-2 permeability assay; type: in vitro ADME; details: human
Method: The apparent permeability coefficient (Papp) of the analytical drug was determined by liquid chromatography-tandem mass spectrometry (LC/MS/MS) through a Caco-2 cell model.
The transfer rate of drug from the apical end to the basal end was determined. 108 μL of HBSS (25 mM HEPES, pH 7.4) containing 10 μM test compound was added to the apical end of the upper chamber of Transwell (purchased from Corning) containing Caco-2 cells (purchased from ATCC) at a density of 6.86×10^5 cells/cm^2, and meanwhile, 8 μL of the sample was added, as an initial dosing-end sample (A-B), to a new 96-well plate to which 72 μL of HBSS (25 mM HEPES, pH 7.4) and 240 μL of acetonitrile (containing 100 nM alprazolam, 200 nM caffeine and 100 nM tolbutamide) had been added, and the plate was vortexed at 1000 rpm for 10 min. 300 μL of HBSS (25 mM HEPES, pH 7.4) was added to the basal end.
The transfer rate of drug from the basal end to the apical end was determined. 308 μL of HBSS (25 mM HEPES, pH 7.4) containing 10 μM test compound was added to wells of the basal end of the plate, and meanwhile, 8 μL of the sample was added, as an initial dosing-end sample (B-A), to a new 96-well plate to which 72 μL of HBSS (25 mM HEPES, pH 7.4) and 240 μL of acetonitrile (containing 100 nM alprazolam, 200 nM caffeine and 100 nM tolbutamide) had been added. The plate was vortexed at 1000 rpm for 10 min, and 100 μL of HBSS (25 mM HEPES, pH 7.4) was added to the apical end.
The transfer rate from the apical end to the basal end and the transfer rate from the basal end to the apical end need to be determined simultaneously.
At the end of the transfer cycle, 8 μL of the sample was taken from the dosing end (apical end of A-B flow and basal end of B-A flow) and added to 72 μL of HBSS (25 mM HEPES, pH 7.4) and 240 μL of acetonitrile (containing 100 nM alprazolam, 200 nM caffeine and 100 nM tolbutamide), and the mixture was added to a new 96-well plate. 80 μL of the liquid was taken directly from each of the basal end of the A-B flow and the apical end of the B-A flow, and added together with 240 μL of acetonitrile (containing 100 nM alprazolam, 200 nM caffeine and 100 nM tolbutamide) to a new 96-well plate. The plates were vortexed at 1000 rpm for 10 min. The samples were centrifuged at 4000 rpm for 30 min. 100 μL of the supernatant was transferred to a new 96-well plate. All samples were analyzed by LC-MS/MS with 100 μL of pure water.
Data were calculated using Microsoft Excel and peak areas were calculated from the chromatograms. The apparent permeability coefficient (Papp) is in cm/s and is calculated using the following formula: […]
Papp is apparent permeability (cm/s×10^−6);
The outflow ratio can be determined by the following equation: […]

[2] = In vivo pharmacokinetic experiment in rats, intragastric administration; details: SD rats, 5 mg/kg
Method: The drug concentrations in the plasma of the test animals (rats) at different time points after intragastric administration of the compound of the present disclosure were determined by an LC/MS/MS method. The pharmacokinetic behavior in rats of the compound of the present disclosure was studied and its pharmacokinetic profile was evaluated.
Male, healthy SD rats of SPF grade, 6-8 weeks old, 3 rats in each group.
Intragastric administration: a certain amount of compound was weighed and prepared into a 1 mg/mL white suspension by adding 0.5% by volume of hydroxypropyl methylcellulose, 0.1% by volume of tween 80 and 99.4% by volume of water.
SD rats were administered intragastrically with compound 4 or BLU-5937 at a dose of 5 mg/kg after fasting overnight.
Rats were administered intragastrically with the compound of the present disclosure. 0.2 mL of blood was collected from the jugular vein at 0.25 h, 0.5 h, 1 h, 2 h, 4 h, 8 h and 24 h after the administration, placed in a tube containing EDTA-K2, separated by centrifugation at 4° C. at 4000 rpm for 5 min to obtain plasma, which was stored at −75° C.
Determination of the content of the test compounds at different concentrations in the plasma of rats after intragastric administration: 50 μL of rat plasma at each time point after the administration was taken, 200 μL of a solution of internal standard dexamethasone (50 ng/mL) in acetonitrile was added thereto, and the mixture was vortexed for 30 s to be mixed well, centrifuged at 4° C. at 4700 rpm for 15 min. The supernatant of the plasma sample was subjected to 3-fold dilution with water, and 2.0 μL of the dilution was taken for LC/MS/MS analysis.

CNC(=O)c1cc(F)c(-c2nc3cc(C)ccn3c2C[C@H]2CN(C(=O)OC)CCO2)c(F)c1 [BLU-5937, reference compound]
Papp A→B at 10 μM ([1]; Caco-2, 10 μM test compound, apical to basal, pH 7.4): 2.4 ×10⁻⁶ cm/s | efflux ratio at 10 μM ([1]; Caco-2, Papp (B-A)/Papp (A-B), read-out: Outflow ratio): 1.2 | V [2]: 1.09 L/kg | Tmax ([2]; male, rat, plasma, po): 15 min | half-life ([2]; male, rat, plasma, po): 174 min | AUC(0-t) ([2]; male, rat, po, plasma): 361 ng·h/mL | Cmax ([2]; male, rat, po, plasma): 151 ng/mL
